Converted amounts (≈) assume the structure as drawn.
How the values were obtained:
[1] = In vitro dissolution of UPA comicronizates (gelatin capsules, paddle device, Eur. Pharmacopoeia §2.9.3); assay type: physicochemical; details: 30 mg UPA capsule, 900 ml gastric pH buffer, 0.1% SDS, 37°C, 50 rpm, mean of 3
Protocol: The co-micronization product has improved active ingredient in vitro dissolution properties. In certain embodiments, the co-micronization product according to the invention is characterized in that at least 55% of the active ingredient that it contains is released within 45 minutes when said co-micronization product is subjected to an in vitro dissolution test, preferably according to the European Pharmacopoeia §2.9.3. The in vitro dissolution test can be carried out using any commercially available device. Example 1 hereinafter presents implementing conditions for determining the in vitro dissolution rate of a comicronizate according to the invention. Briefly, an amount of comicronizate representing 30 mg of active ingredient is placed in a gelatin capsule. This capsule is then placed in 900 ml of a medium buffered at gastric pH, comprising 0.1% of SDS, at 37±0.5° C., and subjected to stirring at 50 revolutions per minute (rpm) (speed of rotation of the paddles of the dissolution device). The dissolution of the active ingredient in the medium can be monitored by spectrophotometry, for example at the maximum wavelength of absorbance. For the purposes of the invention, a gastric pH is typically a pH of 1 to 3.
For each comicronizate obtained, gelatin capsules containing an amount of comicronizate corresponding to 30 mg of UPA per capsule were prepared. The studies of the in vitro dissolution of UPA as comicronizate were carried out using these capsules according to the method described in the European Pharmacopoeia in §2.9.3, using a paddle dissolution device.
For each comicronizate, a capsule containing said comicronizate was placed in a bowl of the dissolution device containing 900 ml of a dissolution medium. The dissolution medium is an aqueous solution buffered at gastric pH and comprising 0.1% of SDS. The conditions for carrying out the in vitro dissolutions are the following: • Paddle rotation speed: 50 revolutions per minute (rpm) • Temperature: 37° C.±0.5° C.
The dissolution of the UPA was monitored by spectrophotometry.
By way of control experiment, a gelatin capsule containing 30 mg of ulipristal acetate micronized alone (i.e. UPA micronized in the absence of any co-micronization excipient) was used. For each comicronizate, the dissolution experiment was reproduced 3 times.
These various active ingredient matrices were subjected to an in vitro dissolution test as described above in the “Materials and Methods” section.

[2] = UPA solubility as a function of pH; assay type: physicochemical
[3] = single dose of 30 mg, within 120 hours following unprotected or poorly protected intercourse; cited from earlier work
[4] = chronic administration, 5 mg or 10 mg per day; cited from earlier work

CC(=O)O[C@]1(C(C)=O)CCC2C3CCC4=CC(=O)CCC4=C3[C@@H](c3ccc(N(C)C)cc3)C[C@@]21C (stereo partly drawn) [UPA, 17α-acetoxy-11β-(4-N,N-dimethylaminophenyl)-19-norpregna-4,9-diene-3,20-dione]
Percentage of UPA released relative to the initial amount of UPA per gel capsule ([1]; time 0 min): 0.00%
Percentage of UPA released relative to the initial amount of UPA per gel capsule ([1]; time 1 min): 0.00%
Percentage of UPA released relative to the initial amount of UPA per gel capsule ([1]; time 5 min): 5.50%
Percentage of UPA released relative to the initial amount of UPA per gel capsule ([1]; time 7.5 min): 15.00%
Percentage of UPA released relative to the initial amount of UPA per gel capsule ([1]; time 10 min): 22.30%
Percentage of UPA released relative to the initial amount of UPA per gel capsule ([1]; time 15 min): 30.00%
Percentage of UPA released relative to the initial amount of UPA per gel capsule ([1]; time 20 min): 34.30%
Percentage of UPA released relative to the initial amount of UPA per gel capsule ([1]; time 30 min, listed as Micronized UPA): 39.50%
Percentage of UPA released relative to the initial amount of UPA per gel capsule ([1]; time 30 min, listed as micronized ulipristal acetate): approximately 39%
Percentage of UPA released relative to the initial amount of UPA per gel capsule ([1]; time 45 min): 47.50%
Percentage of UPA released relative to the initial amount of UPA per gel capsule ([1]; time 60 min): 53.80%
solubility ([2]; pH 1.2, simulated gastric fluid): 22700 µg/mL (≈ 47700 µM)
solubility ([2]; pH 4.5, aqueous buffer): 39 µg/mL (≈ 82 µM)
solubility ([2]; pH 6.8, aqueous buffer): 5 µg/mL (≈ 10.5 µM)
Prevention of unwanted pregnancy [3]: makes it possible to prevent an unwanted pregnancy
Symptoms associated with uterine fibromas [4]: significantly reduce the symptoms associated with uterine fibromas
